These results are taken from ChEMBL document CHEMBL5143515, “Identification of new halogen-containing 2,4-diphenyl indenopyridin-5-one derivative as a boosting agent for the anticancer responses of clinically available topoisomerase inhibitors” (Eur J Med Chem, 2022).

Calls of active or inactive are those of the source. No cut-off for these calls is given here.

Series [1] concerns the target T1, DNA topoisomerase 1 (Homo sapiens) (UniProt P11387).
T1 sequence (whole entry): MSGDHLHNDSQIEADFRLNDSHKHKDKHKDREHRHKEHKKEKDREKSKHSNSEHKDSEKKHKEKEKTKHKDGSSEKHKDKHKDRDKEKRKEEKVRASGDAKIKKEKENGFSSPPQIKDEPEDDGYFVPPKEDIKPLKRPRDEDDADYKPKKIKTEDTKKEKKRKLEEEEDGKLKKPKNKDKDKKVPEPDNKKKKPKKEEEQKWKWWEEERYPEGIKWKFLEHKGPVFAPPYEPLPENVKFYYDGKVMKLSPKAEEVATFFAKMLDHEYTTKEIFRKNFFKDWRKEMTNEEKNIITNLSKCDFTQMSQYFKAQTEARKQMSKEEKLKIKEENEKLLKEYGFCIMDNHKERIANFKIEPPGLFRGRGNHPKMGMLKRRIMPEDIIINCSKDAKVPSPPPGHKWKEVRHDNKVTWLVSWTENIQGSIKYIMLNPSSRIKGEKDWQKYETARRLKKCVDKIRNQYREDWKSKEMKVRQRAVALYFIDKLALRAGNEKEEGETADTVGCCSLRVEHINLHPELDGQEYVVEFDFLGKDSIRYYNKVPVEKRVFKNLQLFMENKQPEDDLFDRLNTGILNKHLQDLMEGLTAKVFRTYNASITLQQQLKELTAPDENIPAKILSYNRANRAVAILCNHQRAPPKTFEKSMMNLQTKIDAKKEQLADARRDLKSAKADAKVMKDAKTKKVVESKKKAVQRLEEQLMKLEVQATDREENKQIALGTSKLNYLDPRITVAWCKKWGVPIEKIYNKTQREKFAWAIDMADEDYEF
Put plainly: Inhibition of recombinant human topoisomerase 1 assessed as relaxation of supercoiled plasmid pBR322 DNA at 100 uM by agarose gel electrophoresis (reference value: 83.2%).

Series [2] deals with HCT-15. Put plainly: Antiproliferative activity against human HCT-15 cells after 72 hrs by EZ-Cytox colorimetric assay. Format: functional, cell-based. The note with it: HCT-15, 72 h.
A further series relates to T47D. In words: Antiproliferative activity against human T47D cells after 72 hrs by EZ-Cytox colorimetric assay. It is filed as functional, cell-based.
Series [3] relates to HCT-15. In words: Synergistic antiproliferative activity against human HCT-15 cells at 5 uM in presence of 1 nM camptothecin after 72 hrs by WST-1 assay. Format: functional, cell-based.
Series [4] relates to HCT-15. Put plainly: Synergistic antiproliferative activity against human HCT-15 cells at 5 uM in presence of 0.2 uM etoposide after 72 hrs by WST-1 assay. It is filed as functional, cell-based.
Series [5] concerns HCT-15. Put plainly: Induction of apoptosis in human HCT-15 cells assessed as change in c-caspase 7 level at 2 to 5 uM in presence of 0.2 uM etoposide and measured by Western blot analysis. The settings on record: dose 2-5 µM. It is filed as functional, cell-based.
The subject of series [6] is HCT-15. Put plainly: Antitumor activity against human HCT-15 cells xenografted in female BALB/c nude mouse assessed as tumor growth retardation at 4 mg/kg, ip administered every day for 6 days in combination with etoposide at 2 mg/kg, ip administered every day for 6 days. It is filed as functional, organism-based. The settings on record: time 6.0 day.
Series [7] can be described thus: Genotoxicity in human HCT-15 cells assessed as production of gamma-H2AX at 2 to 5 uM and measured by western blot analysis. It is filed as toxicity, cell-based. The settings on record: hct-15, 5 µM, dose 2-5 µM.
Series [8] can be described thus: Toxicity in mouse assessed as reduction in number of white blood cells at 4 mg/kg. Format: organism-based. The note with it: in vivo.
Series [9] in a line: Toxicity in mouse assessed as reduction in number of white blood cells at 4 mg/kg in presence of 2 mg/kg etoposide. It is filed as organism-based. The note with it: in vivo.
A short description of series [10]: Toxicity in mouse assessed as reduction in number of absolute neutrophil count at 4 mg/kg in presence of 2 mg/kg etoposide. It is filed as organism-based. The note with it: in vivo.
Series [11] can be described thus: Toxicity in mouse assessed as reduction in hemoglobin level at 4 mg/kg. Format: organism-based. The settings on record: in vivo.
The nature of series [12]: Toxicity in mouse assessed as increase in d red cell distribution width at 4 mg/kg. The settings on record: in vivo. Format: organism-based.
The nature of series [13]: Toxicity in mouse assessed as increase in mean corpuscular volume of RBC at 4 mg/kg administered in combination with 2 mg/kg etoposide. It is filed as organism-based, Erythrocyte. The settings on record: in vivo.

With `O=C1c2ccccc2-c2nc(-c3ccc(Br)cc3)cc(-c3ccccc3)c21`, the inhibition in series [1] was determined as 87%. For the same molecule, the figures for the IC50 with HCT-15 [2] and in the series with T47D were 7.84 µM and 32.7 µM, respectively. Moreover, the outcome with HCT-15 [3], in the series on HCT-15 [4], with HCT-15 [5] and with HCT-15 [6] was Active. Besides, the Activity result in series [7], in [8], in series [9], in [10], in series [11] and in [12] was “Non-Toxic” each time. Besides, the Activity result in series [13] is recorded as “Non-Toxic”.
